Data set [1] can be described thus: Half life in human. It counts as ADME.
Data set [2] in a line: Tmax in human plasma. The class given is ADME, cell-free.
Data set [3] deals with cGMP-specific 3',5'-cyclic phosphodiesterase (Homo sapiens, UniProt O76074). Nature of the data set: Inhibition of PDE-5A (unknown origin).
The target of the next data set is Neprilysin (Homo sapiens, UniProt P08473). Nature of the data set: Inhibition of neutral endopeptidase (unknown origin).

Data on 6 compounds can be found in ChEMBL document CHEMBL5233209, “A concise review of recent advances in anti-heart failure targets and its small molecules inhibitors in recent years” (Eur J Med Chem, 2020).

SMILES strings stand for the structures.

Chain of Neprilysin (P08473 whole entry): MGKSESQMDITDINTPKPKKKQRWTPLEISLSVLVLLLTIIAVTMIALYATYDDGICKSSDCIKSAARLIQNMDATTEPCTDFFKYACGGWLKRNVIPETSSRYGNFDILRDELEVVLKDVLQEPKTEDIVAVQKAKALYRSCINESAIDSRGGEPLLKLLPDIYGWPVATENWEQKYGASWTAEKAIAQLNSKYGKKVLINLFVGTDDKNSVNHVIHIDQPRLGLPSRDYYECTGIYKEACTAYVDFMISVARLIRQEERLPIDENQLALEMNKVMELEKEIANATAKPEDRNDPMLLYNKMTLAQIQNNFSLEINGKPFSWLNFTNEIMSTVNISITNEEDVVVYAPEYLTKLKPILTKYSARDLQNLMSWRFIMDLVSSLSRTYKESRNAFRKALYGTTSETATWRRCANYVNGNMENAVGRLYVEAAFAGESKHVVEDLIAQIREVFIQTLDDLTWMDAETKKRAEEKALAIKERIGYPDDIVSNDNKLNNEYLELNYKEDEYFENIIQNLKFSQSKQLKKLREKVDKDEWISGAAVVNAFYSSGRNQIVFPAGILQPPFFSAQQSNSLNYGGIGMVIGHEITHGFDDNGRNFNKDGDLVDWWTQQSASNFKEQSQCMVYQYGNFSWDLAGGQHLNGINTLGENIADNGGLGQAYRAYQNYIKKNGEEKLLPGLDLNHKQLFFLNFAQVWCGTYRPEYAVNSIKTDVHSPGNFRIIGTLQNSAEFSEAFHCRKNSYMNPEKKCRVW

The half-life is how long it takes for the measured level to halve. The Tmax is the time at which the peak concentration occurs. As for `CCCCC(=O)N(Cc1ccc(-c2ccccc2-c2nnn[nH]2)cc1)[C@H](C(=O)O)C(C)C`, the half-life in data set [1] was 12 h. The Tmax in data set [2] was determined as 1.6 h.
Turning to `CC(C)=CCc1c(O)c2c(c3c1OC(C)(C)C=C3)CC=C(c1ccc3c(c1)OCCO3)C2=O`, the IC50 in data set [3] came to 2.67 µmol.
`CCCCC(=O)N(Cc1ccc(-c2ccccc2-c2nnn[n-]2)cc1)[C@H](C(=O)[O-])C(C)C.CCOC(=O)[C@H](C)C[C@@H](Cc1ccc(-c2ccccc2)cc1)NC(=O)CCC(=O)[O-].O.O.[Na+].[Na+].[Na+]` had an IC50 against Neprilysin of 5 nM.
Regarding `CC(C)=CCC1=C(O)c2c(occ(-c3ccc(O[N+](=O)[O-])cc3)c2=O)C2C=CC(C)(C)OC12` (configuration not stated), the IC50 in data set [3] was 0.5 µmol.
In data set [1], `C[C@H](C[C@@H](Cc1ccc(-c2ccccc2)cc1)NC(=O)CCC(=O)O)C(=O)O` [LBQ-657] gave a half-life of 21 h.
In the case of `CCOC(=O)[C@H](C)C[C@@H](Cc1ccc(-c2ccccc2)cc1)NC(=O)CCC(=O)O` [SACUBITRIL], in data set [2], the Tmax was 0.5 h.
